Where two headings read alike, the source gives them in different places.
Key:
[1] = system: T. gondii RH-2 F tachyzoites; assay: Five-day growth inhibition assay (tachyzoite growth, colorimetric); format: cell-based, Toxoplasma gondii; conditions: 120 h; for IC50: read-out: IC50, median inhibitory concentration, a measure of tachyzoite inhibition; for IC90: read-out: IC90, concentration at which 90% of the tachyzoite growth is inhibited
Description: (§1) Using published methods[8]^,[19], all of the prepared N-substituted thiazolidinones derivatives were evaluated in vitro for (i) host cell cytotoxicity as well as for the ability to inhibit tachyzoite growth over a period of 5 days (Table 1), for (ii) the ability to inhibit tachyzoite invasion of host cells (Figure 1), and for (iii) the ability to inhibit intracellular tachyzoite replication (Figure 2).
(§2) Compounds were tested for the ability to inhibit in vitro tachyzoite (T. gondii RH-2 F (50839); ATCC, VA) and human foreskin fibroblast (HFF; ATCC) growth for 120 h using a published colorimetric assay[8]^,[19]. Stock solutions of all compounds were 10 mM in DMSO. Serial 0.5 log10 dilutions (320–0.032 μM) of each compound were tested. Data from three separate experiments were analysed and the IC50, IC90, and TD50 calculated using Calcusyn software (Biosoft, Cambridge, UK). The therapeutic index (TI), a measure of specific anti-T. gondii activity, was calculated with the formula shown under Table 1.
We explored the chemical space and the influence on the biological activity of different groups (substituted aromatic and bicyclic rings) at the lactam NH of the core nucleus. […] In the five-day growth inhibition assay, compounds were added only once, just before addition of tachyzoites, and thus were present for multiple cycles, up to 20, of parasite replication.

[2] = system: human foreskin fibroblast (HFF); assay: Five-day growth inhibition assay, host cell cytotoxicity; conditions: 120 h
Description: as §1, §2

[3] = system: extracellular T. gondii tachyzoites invading HFF host cells; assay: Red/green invasion assay (immunofluorescence); format: cell-based, Toxoplasma gondii; conditions: 10 μM, 20 min preincubation, 1 h at 37 °C on HFF, vs vehicle, p ≤ .05
Description: Figure 1. Invasion assay of ferrocene-based thiazolidinone derivatives (10 μM). VHL: vehicle (DMSO). *Significant inhibition of tachyzoite invasion (p ≤ .05, two-tailed Students’ t test). **Significant inhibition of tachyzoite attachment (p ≤ .05, two-tailed Students’ t test). Data are compiled from results of three independent experiments.
The ferrocene-based derivatives (10 μM) were examined for activity directly on extracellular tachyzoites using an established immunofluorescence-based red/green invasion assay. This assay measures a compound’s ability to impede the parasite-driven host cell entry of tachyzoites through the host cell plasma membrane. Invaded (intracellular) tachyzoites are labelled green while tachyzoites attached to the surface, but unable to invade, are labelled red. A decrease in the number of invaded tachyzoites relative to vehicle [VHL (DMSO)] is indicative of invasion inhibition. A decrease in the number of invaded plus attached tachyzoites relative to same of VHL is indicative of inhibition of attachment. Data shown are mean values ± SEM of three independent experiments.
We next evaluated the ability of the ferrocene-based derivatives to act directly upon extracellular tachyzoites by using a standard red/green invasion assay. This assay interrogates compounds for inhibition of the first step in host cell infection, i.e. invasion and entry into susceptible cells. In this assay (Figure 1), cell-free purified tachyzoites were incubated with a test compound (10 μM), sulfadiazine (10 μM), or VHL for 20 min at room temperature before being added to HFF host cells. After allowing 1 h at 37 °C for the tachyzoites to attach and invade, the cells were processed by immunofluorescent staining. Extracellular/attached tachyzoites were labelled red while intracellular/penetrated tachyzoites were labelled green.

[4] = system: intracellular T. gondii tachyzoites; assay: Replication assay (immunofluorescence, tachyzoites per parasitophorous vacuole); format: cell-based, Toxoplasma gondii; conditions: 10 μM, added 2 h after infection, 24 h
Description: Figure 2. Replication assay of ferrocene-based thiazolidinone derivatives (10 μM). VHL: vehicle (DMSO); Tz: tachyzoites. Data are compiled from results of three independent experiments.
This assay measures a compound’s ability to inhibit tachyzoite replication over a period of 24 h. The numbers of parasitophorous vacuoles (PV) in experimentally treated infected cells containing 1, 2, 4, or 8 + tachyzoites/vacuole were enumerated, graphed, and compared to those of the VHL-treated infected cells. Data for each size vacuole are shown as the fraction of the total number of vacuoles counted in 10–15 fields. Data shown were compiled from three independent experiments. A decrease in the number of tachyzoites in a vacuole indicates inhibition of replication. Toxoplasma gondii tachyzoites only replicate within the PV inside the host cell with one cycle of replication taking 6–8 h. […] Consequently, a decrease in the number of intravacuolar tachyzoites relative to that of VHL indicates inhibition of replication. Specifically, predominance, i.e. the largest fraction of the total number, of PVs containing 1 or 2 tachyzoites indicates replication inhibition.
Lastly, the replication assay interrogates a compound’s ability to inhibit an established intracellular Toxoplasma infection over the relatively short period of 24 h (3–4 cycles of replication). […] Likewise, allowance of just one cycle of replication results in a majority of PVs containing just two tachyzoites. However, a predominance of PVs containing eight or more tachyzoites indicates absence of inhibitory activity over a 24 h period (see detailed explanation above in Experimental Protocols).

[5] = T. gondii RH-2 F in HFF, three experiments
[6] = HFF cells, top concentration 320 μM
[7] = Toxoplasma gondii, T. gondii RH-2 F in HFF, three experiments

Compound	IC50 [1, 5] [µM]	IC90 [1, 5] [µM]	TD50, median toxicity dose, a measure of cytotoxicity against host cells [2, 6] [µM]	Fraction of PVs containing eight or more tachyzoites [4]	Inhibition of intracellular tachyzoite replication [4]	Inhibition of tachyzoite attachment [3]	also measured
CC(=NN=C1SCC(=O)N1Cc1ccc(Cl)cc1)c1ccc[cH-]1.[Fe+2].c1cc[cH-]c1 [Compound 27, 3-(4-Chlorobenzyl)-2-((1-(ferrocen-2-yl)ethylidene)hydrazono)thiazolidin-4-one]	10	55	≥320	≤ 1%	fairly strong inhibition	–	Inhibition of tachyzoite invasion [3]: notable exceptions
CC(=NN=C1SCC(=O)N1Cc1ccc([N+](=O)[O-])cc1)c1ccc[cH-]1.[Fe+2].c1cc[cH-]c1 [Compound 9, 3-(4-Nitrobenzyl)-2-((1-(ferrocen-2-yl)ethylidene)hydrazono)thiazolidin-4-one]	73	292	217	–	–	significantly inhibited attachment	–
CC(=NN=C1SCC(=O)N1Cc1ccc(F)cc1)c1ccc[cH-]1.[Fe+2].c1cc[cH-]c1 [Compound 18, 3-(4-Fluorobenzyl)-2-((1-(ferrocen-2-yl)ethylidene)hydrazono)thiazolidin-4-one]	6	16	≥320	10–18%	modest inhibition	–	–
CC(=NN=C1SCC(=O)N1Cc1cccc(F)c1)c1ccc[cH-]1.[Fe+2].c1cc[cH-]c1 [Compound 15, 3-(3-Fluorobenzyl)-2-((1-(ferrocen-2-yl)ethylidene)hydrazono)thiazolidin-4-one]	8	57	≥320	–	–	significantly inhibited attachment	–
CC(=NN=C1SCC(=O)N1Cc1ccccc1[N+](=O)[O-])c1ccc[cH-]1.[Fe+2].c1cc[cH-]c1 [Compound 3, 3-(2-Nitrobenzyl)-2-((1-(ferrocen-2-yl)ethylidene)hydrazono)thiazolidin-4-one]	15	78	≥320	–	–	–	Inhibition of tachyzoite invasion [3]: notable exceptions
CC(=NN=C1SCC(=O)N1Cc1cccc2ccccc12)c1ccc[cH-]1.[Fe+2].c1cc[cH-]c1 [Compound 30, 3-(Naphthalen-1-ylmethyl)-2-((1-(ferrocen-2-yl)ethylidene)hydrazono)thiazolidin-4-one]	5	17	≥320	–	–	significantly inhibited attachment	–
CC(=NN=C1SCC(=O)N1Cc1ccccc1F)c1ccc[cH-]1.[Fe+2].c1cc[cH-]c1 [Compound 12, 3-(2-Fluorobenzyl)-2-((1-(ferrocen-2-yl)ethylidene)hydrazono)thiazolidin-4-one]	17	64	≥320	10–18%	modest inhibition	–	–
CC(=NN=C1SCC(=O)N1Cc1cccc(Cl)c1)c1cccs1 [Compound 23, 3-(3-Chlorobenzyl)-2-((1-(thiophen-2-yl)ethylidene)hydrazono)thiazolidin-4-one]	–	–	–	–	–	–	IC50 [1, 7]: 51 µM; IC90 [1, 7]: 256 µM; TD50, median toxicity dose, a measure of cytotoxicity against host cells ([2]; human): 147 µM; melting point: 129 to 131 °C
Nc1ccc(S(=O)(=O)Nc2ncccn2)cc1 [Sulfadiazine, reference compound]	–	–	–	–	robust replication inhibition	–	IC50 ([1]; Toxoplasma gondii): 43 µM; IC90 ([1]; Toxoplasma gondii): 219 µM; TD50, median toxicity dose, a measure of cytotoxicity against host cells ([2]; human): 281 µM

From paper PMC6445228, “Synthesis and biological evaluation of anti-Toxoplasma gondii activity of a novel scaffold of thiazolidinone derivatives” (Journal of Enzyme Inhibition and Medicinal Chemistry, 2017)
